How the values were obtained:
Format in all cases: cell-based
plural animal cell lines = assay: Animal cell lines, summary over the cell lines (Experimental Example 15); conditions: animal cell lines under three-dimensional conditions
From the text: (§1) Various animal cell lines were precultured (single layer culture) as follows in respective media. Chinese hamster ovary-derived cell line CHO-K1 (manufactured by DS PHARMA BIO MEDICAL, 10% fetal bovine serum (FBS, manufactured by Corning)-containing Ham's F-12 medium (manufactured by Fujifilm Wako Pure Chemical Corporation)), Cercopithecus aethiops kidney epithelium-derived cell line Vero (purchased from JCRB cell bank, 5% FBS-containing Medium 199 medium (manufactured by Life Technologies)). The above-mentioned cells in the logarithmic growth phase were washed with PBS, a 0.25 w/v % trypsin-1 mmol/L EDTA (ethylenediaminetetraacetic acid) solution (manufactured by Fujifilm Wako Pure Chemical Corporation) was added, and adherent cells were detached by incubating at 37° C. for 3 min. Each medium was added and the mixture was centrifuged and resuspended in the same medium.
(§2) The aforementioned various animal cells were suspended in respective deacylated gellan gum-containing or not containing media (deacylated gellan gum concentration was 0.02 w/v % in Ham's F-12 medium, 0.015 w/v % in Medium 199 medium), and seeded in a 96 well low attachment U-bottom plate (manufactured by Corning, #4520, deacylated gellan gum-free medium), or a low attachment flat bottom plate (manufactured by Corning, #3474, deacylated gellan gum-containing medium) at a cell concentration of 700-2000 cells/90 μL/well (all 3D culture). […] The amount of each compound solution to be added was […]. As a control, a DMSO solution dissolved in a medium was added (DMSO final concentration 0.1%). […] When compared with the compound non-addition (control), one showing a value of not more than 119% as -, one showing a value of not less than 120% as ◯, and one showing a value of not less than 150% as ⊚ are shown in the twenty-third table and the twenty-fourth table.

[1] = system: Bone marrow-derived human mesenchymal stem cells (BM-hMSC); assay: Cells cultured by hanging drop method, ATP assay (Experimental Example 12)
Description: (§3) Human epithelial-like cell cancer-derived cell line A431 (manufactured by ATCC) was cultured using 10% FBS and 1% MEM non-essential amino acid solution (MEM NEAA, manufactured by Wako Pure Chemical Industries, Ltd.)-containing EMEM (manufactured by Wako Pure Chemical Industries, Ltd.)). In addition, bone marrow-derived human mesenchymal stem cells (BM-hMSC, manufactured by PromoCell) were cultured using a mesenchymal stem cell proliferation medium (manufactured by PromoCell). Each of the above-mentioned cells in the logarithmic growth phase was washed with PBS, a 0.25 w/v % trypsin-1 mmol/L EDTA (ethylenediaminetetraacetic acid) solution (manufactured by Wako Pure Chemical Industries, Ltd.) was added, and the cells were detached by incubating at 37° C. for 3 min. Each medium was added, the mixture was centrifuged, and the supernatant was removed.
(§4) The cell suspension was seeded by 10 μL in 15 drops on the back surface of the lid of a 3.5 cm dish (manufactured by Falcon, #351008) to form droplets. At this time, as a control, a medium supplemented with DMSO (final concentration of DMSO: 0.05%) was seeded by 10 μL in 15 drops. The lid was returned to a 3.5 cm dish added with 2 mL of PBS, and cultured for 2 days in an incubator at 37° C., 5% CO2. The cultured droplets were collected in a 1.5 mL tube, and the medium was added to a final volume of 150 μL.

[2] = system: human epithelial-like cell cancer-derived cell line A431; assay: as above
Description: as §3, §4

[3] = system: SKOV3 cells (human ovarian cancer-derived cell line); assay: Cell proliferation activity in three-dimensional medium FCeM, ATP assay (Experimental Example 1); conditions: SKOV3, 3D medium FCeM, compound 5 μM, 4 days; DMSO control = 100%; average of two tests
Description: A cell proliferation promoting effect when the compound to be used in the present invention was added to a three-dimensional medium was studied. Specifically, precultured (adhesion cultured) SKOV3 cells (human ovarian cancer-derived cell line) were recovered and suspended in a three-dimensional cell culture medium (“FCeM (registered trade mark)” (Nissan chemical corporation)) to prepare a cell suspension. […] The cell suspension seeded in the plate was stood overnight at 37° C., 5% CO2. Then, a DMSO diluted solution (4.44 μL) of the compound to be used in the present invention was added at a final concentration of 5 μM (or two steps of […] and 10 μM) (no stirring after addition). After addition of each compound, the mixtures were stood for 4 days at 37° C., 5% CO2. […] The luminescence intensity (RLU value) was measured by FlexStation3 (manufactured by Molecular Devices), and cell proliferation was evaluated.
The proliferation rate was calculated based on the control (cells added with DMSO without containing the compound to be used in the present invention) as the standard (100%). The values shown in the tables are average values of the results of two tests.

[4] = system: Cercopithecus aethiops kidney epithelium-derived cell line Vero; assay: Animal cell lines, 3D culture, ATP assay (Experimental Example 15); conditions: 4 days
From the text: as §1, §2

[5] = system: Chinese hamster ovary-derived cell line CHO-K1; assay: as above; conditions: CHO-K1; low attachment flat bottom plate (deacylated gellan gum-containing medium); 5 μM; 4 days
From the text: as §1, §2

[6] = system: Human umbilical vein endothelial cells; assay: Vascular endothelial cell, 3D culture, ATP assay (Experimental Example 14)
Description: Human umbilical vein endothelial cells (manufactured by PromoCell) were precultured in Endothelial Cell proliferation Medium (manufactured by PromoCell) medium (single layer culture). The above-mentioned cells in the logarithmic growth phase were washed with PBS, DetachKit (manufactured by PromoCell) was added, and adherent cells were detached by incubating at 37° C. for 3 min. The medium was added and the mixture was centrifuged and resuspended in the same medium.
The aforementioned cells were suspended in respective deacylated gellan gum-containing or not containing media (deacylated gellan gum concentration was 0.015 w/v %), and seeded in a 96 well low attachment U-bottom plate (manufactured by Corning, #4520, deacylated gellan gum-free medium), or a low attachment flat bottom plate (manufactured by Corning, #3474, deacylated gellan gum-containing medium) at a cell concentration of 700-2000 cells/90 μL/well (all 3D culture). […] The amount of each compound solution to be added was 10 μL/well. As a control, a DMSO solution dissolved in a medium was added (DMSO final concentration 0.1%).

hiPS cell line 253G1 = assay: Human pluripotent stem cell (hiPS cell), EZSPHERE plate, ATP assay (Experimental Example 13)
Description: hiPS cell line 253G1 (purchased from RIKEN) was cultured on a dish coated with vitronectin VTN-N (manufactured by Thermo Fisher Scientific) using mTeSR1 (registered trade mark) medium (manufactured by STEMCELL Technologies). The above-mentioned cells in the proliferation phase were washed with PBS (manufactured by Fujifilm Corporation Wako Pure Chemical Industries, Ltd.), TrypLE Select (registered trade mark) (manufactured by Thermo Fisher Scientific) was added and the mixture was incubated at 37° C. for 3 min to remove the detaching solution. The medium was added and the cells were detached by pipetting. Thereafter, the supernatant was removed by centrifugation.
The aforementioned cells were suspended in a medium containing 10 μM Y-27632 (manufactured by Fujifilm Corporation Wako Pure Chemical Industries, Ltd.) and seeded in a 96-well EZSPHERE plate (manufactured by AGC TECHNO GLASS CO., LTD., #4860-900) at a cell concentration of 10000 cells/200 μL/well. […] The amount of each compound solution to be added was 2 μL/well. As a control, a DMSO solution dissolved in a medium was added (DMSO final concentration 0.05%). The medium was exchanged by half the volume every day, and each compound solution was also added to make the compound concentration constant.

CCC(=NNC(=O)CNc1ccccc1)c1ccc(O)c(C)c1O [k-1:H-1]
proliferation activity (in words) (plural animal cell lines): promoted proliferation activity in plural animal cell lines | cell number (relative value) ([1]; BM-hMSC, hanging drop, 5 μM, 2 days, control = 100%): 186% | cell number (in words) ([1]; bone marrow-derived human mesenchymal stem cells, hanging drop method): showed an effect of increasing the number | cell number (in words) ([2]; A431 cell line, three-dimensional cell culture by the hanging drop method): showed an effect of increasing the number | cell number (relative value) ([2]; A431 cell, hanging drop, 5 μM, 2 days, control = 100%): 252% | proliferation rate (%) [3]: 233.26% | number of viable cells (RLU), relative value to control (100%) ([4]; low attachment U-bottom plate, 5 μM): ⊙ | number of viable cells (RLU), relative value to control (100%) ([4]; low attachment U-bottom plate, 10 μM): ⊙ | number of viable cells (RLU), relative value to control (100%) ([4]; low attachment flat bottom plate (deacylated gellan gum-containing medium), 5 μM): ⊙ | number of viable cells (RLU), relative value to control (100%) ([4]; low attachment flat bottom plate (deacylated gellan gum-containing medium), 10 μM): ⊙ | number of viable cells (RLU), relative value to control (100%) [5]: ◯ (one showing a value of not less than 120% as ◯) | relative value of RLU (number of viable cells) ([6]; HUVEC, low attachment U-bottom plate, 5 μM, 4 days, no-addition = 100%): 820% | proliferation activity (in words) ([6]; human umbilical vein endothelial cells under three-dimensional conditions): promoted proliferation activity in human umbilical vein endothelial cells | relative value (%) (hiPS cell line 253G1; hiPS 253G1, EZSPHERE plate, 5 μM, 3 days, RLU of DMSO addition = 100%): 166% | proliferation activity (in words) (hiPS cell line 253G1; human pluripotent stem cells under three-dimensional conditions): promoted proliferation activity in human pluripotent stem cells

— patent publication US20200165194A1, “ADDITIVE COMPOSITION FOR CULTURE MEDIUM, ADDITIVE COMPOUND FOR CULTURE MEDIUM, AND METHOD FOR CULTURE OF CELLS OR TISSUE USING SAME” (NISSAN CHEMICAL CORPORATION, priority 2017, published 2020)
